Measurements taken from patent US10273313B2, “Multimeric mannosides, a process for preparing the same and their uses as a drug” (CENTRE NATIONAL DE LA RECHERCHE SCIENTIFIQUE, priority 2012, dated 2019).
Where “and” joins values, the source holds several entries; their conditions need not be identical. Identical values can stand only once. Like-named read-outs stand apart in the source and are kept apart here.

Legend:
[1] = test system: E. coli strain UTI89 in the bladder of C3H/HeN mice; test: In vivo inhibition in the murine cystitis model (instillation with UTI89)
Description: In vivo inhibition was evaluated by instilling 1-4 together with the UTI89 strain via a catheter in the bladder of C3H/HeN mice. […] A group of ten animals was used for each concentration of antagonists. […] The animals were sacrificed at a 6 h post infection time.
A murine model of urinary tract infection was used to test the ability of the compounds to inhibit the colonization of UTI89 in the bladder [Hung C. S.; Dodson, K. W., Hultgren S. J. Nat. Protoc. 2009, 4, 1230-1243 and Wellens A.; Garofalo C.; Nguyen H.; Van Gerven N.; Slättegård R.; Hernalsteens, J.-P.; Wyns, L.; Oscarson, S.; De Greve H.; Hultgren S. J.; Bouckaert, J. PLoS ONE 2008, 3, e2040]. The solution with high concentration of compounds was added to the resuspension of UTI89 before given to the mice. The eight-week old Female C3H/HeN mice (Harlan, Horst, The Netherlands) were anesthetized and infected via transurethral catheterization of 10^7 CFU UTI89 in solution in PBS, or in PBS with the compound in the mentioned concentration. The mice were sacrificed at 24 hours post infection and the bladders were harvested, homogenized and resuspended in PBS. The serial dilutions were spot on LB medium agar plates. The bacterial load was determined by counting the CFU recovered from the bladder. The animal experiments were approved by the Ethical Committer for Animal Experiments of Vrije Universiteit Brussel and complied with all relevant national legislation and institutional policies. The Mann-Whitney test was applied for the comparison of the data obtained from the untreated group and inhibition group in GraphPad Prism version 5.1 and two tailed P value were shown (GraphPad software).
A limited number of papers described the in vivo efficiency of anti-adhesive mannosides to treat UTIs.

[2] = biological target: T1, monovalent lectin domain of FimH (Escherichia coli, UniProt P08191); format: binding
T1 construct: with the monovalent lectin domain of FimH were measured using isothermal calorimetry (ITC)
T1 sequence (P08191 22-179): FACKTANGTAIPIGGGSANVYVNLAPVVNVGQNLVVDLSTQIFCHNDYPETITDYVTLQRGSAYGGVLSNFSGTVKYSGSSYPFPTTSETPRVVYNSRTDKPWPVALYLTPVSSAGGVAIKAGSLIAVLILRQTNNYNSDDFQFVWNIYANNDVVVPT

human Jurkat cells = test: Prevention of FimH-induced apoptosis of Jurkat cells (24 h)
Description: Eventually, we tested the ability of mannose-based inhibitors to prevent the induction of cell death of human Jurkat cells under the treatment with FimH. We cultures cells with the indicated compound for 24 h and counter percentage of viable (AnV−/Pi−), apoptotic (AnV+/Pi−) and necrotic cells (AnV+/PI+). […] 2. […] 3.
Apoptosis was induced by UV-B irradiation with 90 mJ/cm^2, apoptosis of human PMN cells was induced by 24 h aging. To quantify the rate of apoptosis, cells were analyzed by flow cytometry or fluorescent microscopy. Amongst other features, apoptosis is characterized by blebbing of the cellular membrane, leading to a decrease in the forward scatter (FSC) and an increase in the sideward scatter (SSC). For detection of phosphatidylserine (PS) exposure on the cell surface staining with FITC conjugated annexin V (Böhringer, Mannheim, Germany) in combination with propidium iodide (PI) (AxV/PI) was performed. 200.000 cells were stained for 30 minutes at 4° C. with 200 ng of AxV-FITC and 500 ng propidium iodide (PI) in 500 μl Ringer's solution [Nicoletti, Migliorati, Pagliacci, Grignani and Riccardi, A rapid and simple method for measuring thymocyte apoptosis by propidium iodide staining and flow cytometry. J Immunol Methods, 1991. 139.271-9]. The samples were immediately analyzed by flow cytometry of fluorescent microscopy.

OCC1OC(OCCCCCCCOCc2cn(CC3OC4OC5C(Cn6cc(COCCCCCCCOC7OC(CO)C(O)C(O)C7O)nn6)OC(OC6C(Cn7cc(COCCCCCCCOC8OC(CO)C(O)C(O)C8O)nn7)OC(OC7C(Cn8cc(COCCCCCCCOC9OC(CO)C(O)C(O)C9O)nn8)OC(OC8C(Cn9cc(COCCCCCCCOC%10OC(CO)C(O)C(O)C%10O)nn9)OC(OC9C(Cn%10cc(COCCCCCCCOC%11OC(CO)C(O)C(O)C%11O)nn%10)OC(OC%10C(Cn%11cc(COCCCCCCCOC%12OC(CO)C(O)C(O)C%12O)nn%11)OC(OC3C(O)C4O)C(O)C%10O)C(O)C9O)C(O)C8O)C(O)C7O)C(O)C6O)C(O)C5O)nn2)C(O)C(O)C1O (stereo not shown) [Compound 2]
Bacterial reduction compared with monovalent 1 and 3 at 1 mM ([1]; 10 μM (1.8 and 2.5 μg)): equivalent bacterial reduction | Reduction of urinary tract infection ([1]; around 2 μg instilled in the mouse bladder, after 24 h): significantly reduced the urinary tract infection | Affinity of FimH for the ligand (in words) ([2]; ITC): nanomolar affinities | Molar ratio n meas ([2]; normal (direct) titration): 0.12 | ΔG° ([2]; normal (direct) titration): -10.5 kcal/mol | ΔH° ([2]; normal (direct) titration): -77.5 kcal/mol | ΔS° ([2]; normal (direct) titration): −227 cal/mol/deg | Kd ([2]; normal (direct) titration, compound injected into FimH): 18.2 nM | Molar ratio n meas ([2]; reverse titration): 3 and 3.01 | ΔG° ([2]; reverse titration): -11.6 kcal/mol | ΔH° ([2]; reverse titration): -19.2 kcal/mol | ΔS° ([2]; reverse titration): −25.9 cal/mol/deg | Kd ([2]; reverse titration, FimH injected into compound): 2.86 nM and 2.9 nM | Toxicity to Jurkat cells (human Jurkat cells): not toxic | Prevention of apoptosis induction by FimH (human Jurkat cells; 10 nM): effectively prevented apoptosis induction | Prevention of apoptosis induction by FimH (human Jurkat cells; 100 nM): effectively prevented apoptosis induction
